Measured values published in patent US8529915B2, “(R)-(-)-1,2-propanediol compositions and methods” (priority 2010, dated 2013).
In brackets after ≈: the same amount, converted by molar mass. Entries after “also recorded” stand apart in the source; their conditions may differ. Where two headings read alike, the source gives them in different places. Each block holds one molecule with its values, some of them ahead of it.

Experiments:
rodents = settings: oral; cited from earlier work
humans = settings: based on intravenous infusion studies; cited from earlier work
philtrum skin = philtrum skin cooling bioassay; assay type: in vivo, human; settings: for cooling activity AUC in (R)-1,2-propanediol / cooling activity AUC in racemic-1,2-propanediol: ± S.E.M.; for cooling effect: applied to the philtrum
From the text: The term “alcoholic solvent” refers to a chemical with one to four carbons with at least one hydroxyl group attached to a carbon atom. A reliable place for topical application is the skin above the upper lip (above the vermilion border of the lips), on the philtrum, lateral to the philtrum until the nasolabial folds, and on the lower nostrils (subnasale). This part of the face is known to be densely innervated with cold receptors, second only to the surfaces of the eyeball and anogenitalia. Tingling, cool and cold sensations from the skin may be experienced and rated for time of onset and intensity.
The intervals for recording sensations are 5 to 10 minutes, until two successive zeroes are obtained. The results (shown in the Figures) are averaged values of 4 to 6 separate trials in the same individual. The data are plotted using SigmaPlot (Systat Software, Point Richmond Calif.) and a smoothing function with a negative exponential was used for analysis and statistical fit of the results. The onset of drug action is taken as the time to reach 2 units of coolness intensity, and offset of drug action is the time when coolness intensity drops below 2, after previously surpassing 2 units. The duration of cooling action is defined as the offset time minus the onset time and the primary index of effect. […]
Using a cotton-tipped applicator (e.g. Q-tips®) 0.10 to 0.25 ml of the test solution was applied to the skin above the upper lip, on the philtrum, and lateral to the philtrum up to the nasolabial folds, and the onset and duration of cooling sensations noted. […] The interval for recording sensations was at 5 to 10 minute intervals, until at least two successive zeroes were obtained. The results were averaged values of 3 to 6 separate trials in the same individual. The “onset” is the time taken to reach a coolness intensity value of 2. […] The “off-set” is when the coolness intensity drops below 2, and the duration is the time of off-set minus the time of onset. The area under the curve (AUC) also gives an estimate of the intensity and duration of drug action and can be obtained from the plotted data using SigmaPlot (Systat Software, Point Richmond Calif.). The AUC is given in average ±S.E.M. units which is the product of cooling intensity×min.

tongue = settings: average for 6 subjects, filter paper on dorsal tongue, 30 seconds; cited from earlier work
solubility in solvents = assay type: physicochemical; settings: organic solvent or mixture
Experimental: Many cooling agents are more soluble in ethanol than in 1,2-propanediol. For example, W-3 and CPS-369 are soluble in absolute ethanol at >300 mg/ml and >500 mg/ml, respectively. These compounds are less soluble in 1,2-propanediol, with solubilities of about 10 mg/ml at standard conditions. To formulate liquid compositions of cooling agents, it is convenient to use up to 5% of ethanol in the total volume to dissolve the cooling agent and then add the rest as (R)-1,2-propanediol to complete the formulation without significant loss of cooling actions.

[1] = tested on: itch (contact dermatitis) on the scalp; assay: scalp itch (contact dermatitis) case, topical application; assay type: in vivo, human; settings: for sensations of coolness after application to scalp: 5 mg/ml in 1% ethanol-99% (R)-1,2-propanediol, droplet delivery; for itch after two days of applications: applications spaced approximately 10 hours apart, scalp
Experimental: An individual developed intense itch (contact dermatitis) on the scalp at the base of the skull after use of hair dye. A cotton-tipped stick was used to apply CPS-410 or CPS-412, 5 mg/ml dissolved in a 1% ethanol-99% (R)-1,2-propanediol, to the site of itch. The itch sensations were suppressed within 5 min of application of either solution and this effect lasted for at least 8 hr. In a second experiment, the solutions were applied using a plastic bottle with a conical Yorker spout. This allowed more precise droplet delivery of the solution to the site of itch. […] The advantage of liquid formulation is the ease of uniform delivery to the inflamed site, a method not achievable with cream or ointment. Itch symptoms of hair and fur occur in seborrheic dermatitis, psoriasis, insect bites, canine pruritus, and allergic dermatitis. Liquid formulations containing (R)-1,2-propanediol and a cooling agent may be therapeutically valuable in these conditions.

TRP-M8 receptor = TRP-M8 receptor (Homo sapiens, UniProt Q7Z2W7); settings: cited from earlier work
Chain of TRP-M8 receptor (Q7Z2W7 whole entry): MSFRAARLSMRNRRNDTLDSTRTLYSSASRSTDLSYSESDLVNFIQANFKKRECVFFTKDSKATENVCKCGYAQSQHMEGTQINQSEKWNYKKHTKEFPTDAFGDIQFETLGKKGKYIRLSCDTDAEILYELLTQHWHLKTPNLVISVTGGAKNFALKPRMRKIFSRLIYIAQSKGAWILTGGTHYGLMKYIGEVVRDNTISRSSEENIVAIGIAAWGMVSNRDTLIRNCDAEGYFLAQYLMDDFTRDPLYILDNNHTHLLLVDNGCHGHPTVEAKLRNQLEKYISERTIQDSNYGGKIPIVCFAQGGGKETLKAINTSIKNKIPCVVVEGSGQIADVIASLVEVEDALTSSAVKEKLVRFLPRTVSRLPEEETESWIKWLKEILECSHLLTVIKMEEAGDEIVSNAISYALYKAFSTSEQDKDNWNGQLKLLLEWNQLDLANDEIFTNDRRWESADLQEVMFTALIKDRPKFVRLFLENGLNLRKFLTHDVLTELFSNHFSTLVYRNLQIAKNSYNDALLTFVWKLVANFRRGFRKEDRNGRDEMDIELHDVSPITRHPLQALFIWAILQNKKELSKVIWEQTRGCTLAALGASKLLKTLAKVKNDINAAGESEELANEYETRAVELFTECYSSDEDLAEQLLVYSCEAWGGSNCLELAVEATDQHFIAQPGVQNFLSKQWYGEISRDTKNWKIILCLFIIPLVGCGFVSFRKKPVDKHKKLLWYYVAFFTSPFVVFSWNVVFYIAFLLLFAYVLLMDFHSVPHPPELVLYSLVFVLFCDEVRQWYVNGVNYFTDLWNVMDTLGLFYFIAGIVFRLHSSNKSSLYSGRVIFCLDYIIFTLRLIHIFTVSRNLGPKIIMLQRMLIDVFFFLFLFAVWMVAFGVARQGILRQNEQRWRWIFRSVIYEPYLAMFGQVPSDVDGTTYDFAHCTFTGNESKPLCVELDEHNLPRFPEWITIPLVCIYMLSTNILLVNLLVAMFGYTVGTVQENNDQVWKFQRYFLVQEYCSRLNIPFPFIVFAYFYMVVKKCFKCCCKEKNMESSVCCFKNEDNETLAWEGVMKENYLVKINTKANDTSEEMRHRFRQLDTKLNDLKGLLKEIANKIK

[2] = tested on: axillary skin lesion of plaque psoriasis; assay: plaque psoriasis case, axillary skin lesion itch and burning; assay type: in vivo, human; settings: same patient, subsequent treatment
From the text: A person with an 8-year history of plaque psoriasis complained of an axillary skin lesion that itched, had burning sensations, and kept them awake at night. Their condition was severe and chronic. Their parent complained that they had to vacuum their bedroom every day in order to remove flaking skin debris. […] They volunteered to try CPS-148, 2% dissolved in 1% ethanol-99% (R)-1,2-propanediol, and was given instructions on how to apply the solution to their site of itch with a swab stick (Q-tip™). They claimed after the first time of application at night the burning sensations and itch disappeared within 5 to 10 min and they were able to have a good night's sleep. They continued to use the solution on an “as-needed basis” for one month and claimed that they slept much better than before.

[3] = CPS-369 at 10 mg/ml dissolved in the named solvent, applied to philtrum skin, based on AUC, inactive = coolness intensity did not exceed 2 units
[4] = 5 mg/ml, (R)-1,2-propanediol with 1% ethanol vol/vol, philtrum
[5] = 5 mg/ml, racemic 1,2-propanediol with 1% ethanol vol/vol, philtrum
[6] = absolute ethanol, read-out: solubility in absolute ethanol
[7] = 1,2-propanediol, standard conditions, read-out: solubility in 1,2-propanediol

Molecule: CC(O)CO (racemic) [racemic 1,2-propanediol, 1,2-propanediol]
median lethal dose (rodents): about 25 ml/kg of body weight | estimated “safe” dose (humans): 1 g per kg body weight per day

Molecule: CC(O)CCO (racemic) [racemic 1,3-butanediol, 1,3-butanediol]
Cooling Activity % (relative to (R)-1,2-propanediol) (philtrum skin; [3]): 10% | Cooling Activity % (relative to (R)-1,2-propanediol) (philtrum skin; in vivo): significant loss of cooling activity

Molecule: CC1CCC(C(C)C)C(O)C1 (single isomer, unassigned; (-)) [(−)-menthol]
Threshold (amount producing cooling sensations on the tongue), average (tongue): 0.25 µg

Molecule: OCCCO [1,3-propanediol]
Cooling Activity % (relative to (R)-1,2-propanediol) (philtrum skin; [3]): significant loss of cooling activity; also recorded: inactive

Molecule: C[C@H](O)CO [(S)-1,2-propanediol]
Cooling Activity % (relative to (R)-1,2-propanediol) (philtrum skin; [3]): 47%

Molecule: CCCCCCP(=O)(C(C)CC)C(C)CC (stereo not drawn) [CPS-147, 1-(Di-sec-butyl-phosphinoyl)-hexane]
cooling activity AUC in (R)-1,2-propanediol (philtrum skin; 3 mg/ml, (R)-1,2-propanediol with 2% ethanol vol/vol, philtrum): 81 ± 4 cooling intensity × min | cooling activity AUC in racemic-1,2-propanediol (philtrum skin; 3 mg/ml, racemic 1,2-propanediol with 2% ethanol vol/vol, philtrum): 64 ± 4 cooling intensity × min

Molecule: CCCCCCCP(=O)(C(C)CC)C(C)CC (stereo not drawn) [CPS-148, 1-(Di-sec-butyl-phosphinoyl)-heptane]
cooling activity AUC in (R)-1,2-propanediol (philtrum skin; 2 mg/ml, (R)-1,2-propanediol with 1% ethanol vol/vol, philtrum): 173 ± 15 cooling intensity × min | cooling activity AUC in racemic-1,2-propanediol (philtrum skin; 2 mg/ml, racemic 1,2-propanediol with 1% ethanol vol/vol, philtrum): 75 ± 6 cooling intensity × min

solubility (solubility in solvents; [6]): > 500000 µg/mL | solubility (solubility in solvents; [7]): ~10000 µg/mL (≈ 35.3 mM)
Molecule: CCOC(=O)[C@@H](C)NC(=O)[C@@H]1C[C@H](C)CC[C@H]1C(C)C [CPS-369, (R)-2-[((1R,2S,5R)-2-isopropyl-5-methyl-cyclohexanecarbonyl)-amino]-propionic acid ethyl ester]
cooling activity AUC in (R)-1,2-propanediol (philtrum skin; [4]): 218 ± 12 cooling intensity × min | cooling activity AUC in racemic-1,2-propanediol (philtrum skin; [5]): 134 ± 16 cooling intensity × min

Molecule: CCCOC(=O)[C@@H](C)NC(=O)[C@@H]1C[C@H](C)CC[C@H]1C(C)C [CPS-410, (R)-2-[((1R,2S,5R)-2-isopropyl-5-methyl-cyclohexanecarbonyl)-amino]-propionic acid n-propyl ester]
cooling activity AUC in (R)-1,2-propanediol (philtrum skin; [4]): 281 ± 7 cooling intensity × min | cooling activity AUC in racemic-1,2-propanediol (philtrum skin; [5]): 122 ± 12 cooling intensity × min | sensations of coolness after application to scalp [1]: produced sensations of coolness | itch after two days of applications [1]: no longer present

Molecule: CCCCOC(=O)[C@@H](C)NC(=O)[C@@H]1C[C@H](C)CC[C@H]1C(C)C [CPS-412, (R)-2-[((1R,2S,5R)-2-isopropyl-5-methyl-cyclohexanecarbonyl)-amino]-propionic acid n-butyl ester]
cooling activity AUC in (R)-1,2-propanediol (philtrum skin; [4]): 243 ± 5 cooling intensity × min | cooling activity AUC in racemic-1,2-propanediol (philtrum skin; [5]): 127 ± 10 cooling intensity × min | sensations of coolness after application to scalp [1]: less noticeable | itch after two days of applications [1]: no longer present

Molecule: C[S+](C)[O-] [Dimethylsulfoxide]
in vitro inhibition of TRP-M8 response relative to alcohols (TRP-M8 receptor; Benedikt et al. 2007): less inhibitory

solubility (solubility in solvents; [6]): > 300000 µg/mL | solubility (solubility in solvents; [7]): ~10000 µg/mL (≈ 47.3 mM)
Molecule: CCNC(=O)C1CC(C)CCC1C(C)C (stereo not drawn) [WS-3, 2-Isopropyl-5-methyl-cyclohexanecarboxylic acid ethylamide]
cooling effect (philtrum skin; 20 mg/ml in absolute ethanol): did not produce significant cooling | cooling activity AUC in (R)-1,2-propanediol (philtrum skin; 20 mg/ml, (R)-1,2-propanediol with 3% ethanol vol/vol, philtrum): 122 ± 8 cooling intensity × min | cooling activity AUC in racemic-1,2-propanediol (philtrum skin; 20 mg/ml, racemic 1,2-propanediol with 3% ethanol vol/vol, philtrum): 64 ± 6 cooling intensity × min

Molecule: CCOC(=O)CNC(=O)[C@@H]1C[C@H](C)CC[C@H]1C(C)C [WS-5, [((1R,2S,5R)-2-isopropyl-5-methyl-cyclohexanecarbonyl)-amino]-acetic acid ethyl ester]
cooling effect (philtrum skin; 10 mg/ml in 100% ethanol): did not produce any cooling effect

Molecule: CCO [ethanol]
Cooling Activity % (relative to (R)-1,2-propanediol) (philtrum skin; [3]): loss of cooling activity; also recorded: inactive | TRP-M8 receptor response to (−)-menthol (TRP-M8 receptor; 3% concentration of ethanol): almost totally lost

Molecule: CC(C)O [isopropanol]
Cooling Activity % (relative to (R)-1,2-propanediol) (philtrum skin; [3]): loss of cooling activity; also recorded: inactive

Molecule: (R)-1,2-propanediol
reversal of ethanol inhibition of WS-5 cooling (philtrum skin; added at 10%, 20% and 40% vol/vol to ethanolic solution of WS-5 10 mg/ml, philtrum): reversed the ethanol inhibition in a dose-dependent relationship

Molecule: Enbrel®
psoriatic condition after a course of treatment [2]: improved considerably

Molecule: n-propanol
Cooling Activity % (relative to (R)-1,2-propanediol) (philtrum skin; [3]): loss of cooling activity; also recorded: inactive
